{"source": "patent US20160115540A1", "about": "“PRODRUGS AND DRUGS” (Biogen MA Inc., priority 2013, published 2016)", "test_system": "blood and tissues", "assay": "Transcriptional profiling, multi-dosing regimen, naïve mice: blood and other tissues", "assay_type": "in vivo", "settings": "for Number of differentially expressed genes identified: Cerebellum / Number of differentially expressed genes identified: Lymph Node / Number of differentially expressed genes identified: Whole blood: Table 13: Naïve, Single Dose (so in the source), 12 h after last dosing", "protocol": "In vivo, DMF is rapidly metabolized to monomethyl fumarate (MMF). […] Animals were exposed to CO2 and whole blood collected via cardiac puncture. Two 100 μl aliquots of whole blood were collected in 1.5 mL microcentrifuge tubes and snap frozen in liquid nitrogen. Peripheral (liver, spleen, kidney and jejunum) and CNS brain (cerebellum, hippocampus, striatum and cortex) tissues were harvested and snap frozen in liquid nitrogen, with special care taken to collect tissues of similar size and from the same location. All samples were stored at -80° C. until RNA extraction was conducted. For RNA preparation, frozen tissues were placed in 2 mL RNAse-free 96-well blocks with 1.5 mL QIAzol Lysis Reagent (QIAgen) and a 3.2 mm stainless steel bead (BioSpec Products, Bartlesville, Okla.). Tissues were disrupted for four cycles of 45 seconds in a Mini-Beadbeater (Biospec Products). RNA was extracted in chloroform and the aqueous phase was mixed with an equal volume of 70% ethanol. Extracted RNA was applied to RNeasy 96 plates and purified by the spin method according to the manufacturer's protocol (RNeasy 96 Universal Tissue Protocol, QIAgen, Hilden Germany). 50 ul of snap frozen mouse blood was re-suspended in lysis buffer with proteinase K and arrayed into deep-well plates for automated RNA extraction. RNA extractions were completed on […] (Beckman Coulter, Indianapolis, Ind.) using Agencourt RNAdvance Blood kit (Part number A35604) according to the manufacturer's specifications. RNA integrity was assessed using the HT RNA reagent kit (Part number 760410, Caliper Life Sciences, Hopkinton, Mass.) using a LabChip GX (PerkinElmer, Waltham, Mass.). RNA samples with a RQS score of >8.0 were considered high quality for downstream microarray processing. […] Two micrograms of biotin labeled […] probe were hybridized to Affymetrix GeneChip Affymetrix HT_MG-430_PM plate arrays with modified conditions as described in […] et al. Washing and staining of the hybridized arrays were completed as described in the GeneChip Expression analysis technical manual for HT plate arrays using the Genechip® Array Station (Affymetrix, Santa Clara, Calif.) with modifications as described in […] et al. The processed GeneChip® plate arrays were scanned using GeneTitan scanner (Affymetrix, Santa Clara, Calif.). Affymetrix scans were subject to quality control (QC) measures. These tests included a visual inspection of the distribution of raw signal intensities and an assessment of RNA degradation, relative log expression (RLE), and normalized unsealed standard error (NUSE). All sample scans that passed these QC metrics were included in the analysis. All CEL files were subjected to GC-content-based Robust Multi-array Average (GCRMA) normalization (version 2.20.0) (Irizarry R A, et al. Nucleic Acids Res 2003; 31:e15; Li C, et al. Genome Biol 2001; 2:[…]0032). […] Stat Appl Genet Mol Biol 2004; 3:Article3). […] Springer Science+Business Media 2005). Changes in gene expression were studied by applying a linear modeling approach to fit gene expression levels according to the defined groups of samples (e.g. DMF-, MMF-, and Vehicle-treated animals) and Bayesian posterior error analysis as implemented by Smyth (Smyth G K. Stat Appl Genet Mol Biol 2004; 3:Article3). The comparisons considered included: DMF-vs-MMF, DMF-vs-Vehicle, and MMF-vs-Vehicle. […] Very few DEGs are observed in blood and tissues derived from the central nervous system (brain, cerebellum, cortex, striatum, and spinal cord).", "key": {"[1]": {"settings": "CEREBELLUM, 100DMF-vs-Veh, naïve multidose"}, "[2]": {"settings": "LYMPH NODE, 100DMF-vs-Veh, naïve multidose"}, "[3]": {"settings": "WHOLE BLOOD, 100DMF-vs-100MMF, naïve multidose"}}, "note": "Structures can show the parent of a compound that is named as a salt."}
{"molecule": "COC(=O)/C=C/C(=O)OC", "note": "[DMF, dimethyl fumarate]", "values": [{"measurement": "FC", "setting": "1110020A21Rik 1439574_PM_at, WHOLE BLOOD, 100DMF-vs-Veh", "result": "−1.77"}, {"measurement": "FC", "setting": "8430427H17Rik 1428284_PM_at, WHOLE BLOOD, 100DMF-vs-Veh", "result": "−1.73"}, {"measurement": "FC 1110021J02Rik (1419892_PM_at)", "setting": "[1]", "result": 1.54}, {"measurement": "FC Aox1 (1419435_PM_at)", "setting": "[1]", "result": 1.60}, {"measurement": "FC Apold1 (1441228_PM_at)", "setting": "[1]", "result": 1.85}, {"measurement": "FC Cnnm3 (1420481_PM_at)", "setting": "[1]", "result": 1.62}, {"measurement": "FC Prr15 (1452473_PM_at)", "setting": "[1]", "result": 1.80}, {"measurement": "FC Rapgef4 (1421622_PM_a_at)", "setting": "[1]", "result": "−1.55"}, {"measurement": "FC Tgm2 (1437277_PM_x_at)", "setting": "[1]", "result": 1.51}, {"measurement": "FC probe 1457266_PM_at (no gene symbol)", "setting": "[1]", "result": 1.51}, {"measurement": "FC Ccl6 (1420249_PM_s_at)", "setting": "[2]", "result": 1.66}, {"measurement": "FC Ccl17 (1419413_PM_at)", "setting": "[2]", "result": "−1.57"}, {"measurement": "FC Nqo1 (1423627_PM_at)", "setting": "[2]", "result": 1.95}, {"measurement": "FC Nts (1422860_PM_at)", "setting": "[2]", "result": 2.72}, {"measurement": "FC", "setting": "Parm1 1424214_PM_at, WHOLE BLOOD, 100DMF-vs-Veh", "result": "−1.68"}, {"measurement": "FC", "setting": "Pla2g7 1430700_PM_a_at, WHOLE BLOOD, 100DMF-vs-Veh", "result": 1.65}, {"measurement": "FC", "setting": "Slc27a2 1416316_PM_at, WHOLE BLOOD, 100DMF-vs-Veh", "result": "−2.37"}, {"measurement": "Number of differentially expressed genes identified: Cerebellum", "setting": "100 mpk DMF-vs-90 mpk MMF", "result": 0}, {"measurement": "Number of differentially expressed genes identified: Lymph Node", "setting": "100 mpk DMF-vs-90 mpk MMF", "result": 0}, {"measurement": "Number of differentially expressed genes identified: Whole blood", "setting": "100 mpk DMF-vs-90 mpk MMF", "result": 0}, {"measurement": "Number of differentially expressed genes identified: Cerebellum", "setting": "100 mpk DMF-vs-Vehicle", "result": 8}, {"measurement": "Number of differentially expressed genes identified: Lymph Node", "setting": "100 mpk DMF-vs-Vehicle", "result": 4}, {"measurement": "Number of differentially expressed genes identified: Whole blood", "setting": "100 mpk DMF-vs-Vehicle", "result": 5}, {"measurement": "FC 2610001J05Rik (1448002_PM_x_at)", "setting": "[3]", "result": "−4.35"}, {"measurement": "FC 8430408G22Rik (1433836_PM_a_at)", "setting": "[3]", "result": 1.78}, {"measurement": "FC A730017C20Rik (1437528_PM_x_at)", "setting": "[3]", "result": 1.56}, {"measurement": "FC Aco1 (1456728_PM_x_at)", "setting": "[3]", "result": 1.56}, {"measurement": "FC Cadm2 (1435146_PM_s_at)", "setting": "[3]", "result": 1.50}, {"measurement": "FC Cdk7 (1424257_PM_at)", "setting": "[3]", "result": 1.73}, {"measurement": "FC Cherp (1436885_PM_a_at)", "setting": "[3]", "result": 1.53}, {"measurement": "FC Neo1 (1447694_PM_x_at)", "setting": "[3]", "result": "−3.98"}]}
